Laboratory results: US20060030556A1, “Neurokinin-1 receptor antagonists for the treatment of conditions responsive to testosterone elevation, including testosterone deficiency” (SOLVAY PHARMACEUTICALS B.V., priority 2004, published 2006)

What was measured:
[1] = tested on: NK1 receptors in the tree shrew brain; assay: Nicotine-induced emesis pilot study to establish the dose that blocks NK1 receptors in tree shrew brain; assay type: in vivo, tree shrews (Tupaia belangen); conditions: 30 min before s.c. (-)-nicotine 4 mg/kg, episodes counted over following 30 min, n=4 crossover
Method: (§1) The experiments were carried out using tree shrews (Tupaia belangen). Experimentally naive adult male tree shrews were obtained from the breeding colony at the German Primate Center (Göttingen, Germany). Animals were housed individually in air-conditioned facilities on a 12 hr/12 hr light/dark cycle with artificial illumination (lights on from 8:00 A.M. to 8:00 P.M.) and with free access to food and water (Fuchs E. “Tree shrews”, In: Poole T, (ed) UFAW handbook on the care and management of laboratory animals Oxford: Blackwell, 235-245, 1999). All treatments were performed during the day (activity period, lights on). Animal experiments were conducted in accordance with the European Communities Council Directive of Nov. 24, 1986 […] and were approved by the Government of Lower Saxony, Germany.
Animals received the NK1 receptor antagonist Compound 1 orally. A pilot study to establish the dose of Compound 1 that blocks NK1 receptors in the tree shrew brain was conducted. The methodology used is based on the ability of NK1 receptor antagonists to block nicotine-induced vomiting in musk shrews (Tattersall et al., Neuropharmacology, 34, 1697-1699, 1995). Adult tree shrews (n=4) received either vehicle or Compound 1 in different dosage orally followed 30 minutes later by subcutaneous administration of (−)-nicotine (4 mg/kg; Sigma), and the number of emetic episodes occurring during the following 30 min was recorded. Each animal received each treatment in a crossover design, with 10 days washout period between studies. Emetic episodes were abolished by treatment with 20 mg/kg per day Compound 1, whereas lower doses, i.e. 5 or 10 mg/kg per day and vehicle were ineffective.

[2] = Serum testosterone in chronic psychosocial stress with concomitant Compound 1 treatment (enzyme-immunoassay); assay type: in vivo, tree shrews (Tupaia belangen)
Method: as §1
The experimental design was as follows: Animals were divided into three experimental groups: ‘Control’, ‘Stress’ and ‘Stress+Compound 1’, each consisting of six tree shrews. The experiment consisted of three different phases and lasted for six weeks (42 days). The first experimental phase went on for 7 days, during which all animals remained undisturbed and body weight was recorded daily. The second phase of the experiment was a 7-day period, during which the animals of the Stress' and the ‘Stress+Compound 1’ group were submitted to daily psychosocial conflict. For the induction of psychosocial conflict one naive male was introduced into the cage of a socially experienced male. After establishment of a clear dominant/subordinate relationship, the two animals were separated by a wire mesh barrier. […]
For determination of testosterone, 100 μl serum was two times extracted with 1 ml of diethylether by vortexing for 10 min. […] 50 μl aliquots of reconstituted extracts were then measured for concentrations of testosterone by enzyme-immunoassay as described by Kraus et al. (Physiol. Behav. 66: 855-861, 1999). […]
Serum testosterone levels were measured from blood samples collected before perfusing the animals. […]

[3] = 20 mg/kg/day oral for 28 days, p<0.05

## O=C(c1cccc(C(F)(F)F)c1)N1C[C@H]2CC[C@H](N3CCOCC3)CN2C[C@H]1Cc1c[nH]c2ccccc12 [Compound 1]
[1]; 5 mg/kg per day oral
  emetic episodes after (-)-nicotine: ineffective
[1]; 10 mg/kg per day oral
  emetic episodes after (-)-nicotine: ineffective
[1]; 20 mg/kg per day oral
  emetic episodes after (-)-nicotine: abolished
[2]; [3]
  serum testosterone concentrations compared to 'Control' animals: two fold increase
  testosterone levels compared to the 'Stress' group: six times higher
[2]; Stress + Compound 1 group, 20 mg/kg/day oral for 28 days during psychosocial stress, n = 6, p<0.05 versus Control and versus Stress
  Serum testosterone concentration: 6.45 ± 2.00 *# (n = 6) ng/ml
